Assay results as given in ChEMBL document CHEMBL3774349, “Thiazolo[4,5-d]pyrimidines as a privileged scaffold in drug discovery” (Eur J Med Chem, 2016).

Assays:
[1] = Cytotoxicity against human KB cells assessed as cell growth inhibition by crystal violet staining based spectrophotometry; conditions: read-out: TC50 (the source's name)
Human betaherpesvirus 5 = experiment: Antiviral activity against Human cytomegalovirus Towne infected in HFF cells after 2 hrs by plaque reduction assay; type: functional, cell-based; conditions: Human betaherpesvirus 5, Towne
[2] = Cytotoxicity against human MRC5 cells assessed as cell growth inhibition by aqueous non-Radioactivity Cell proliferation Assay; type: cell-based; conditions: read-out: TC50 (the source's name)
[3] = Cytotoxicity against monkey Vero cells assessed as cell growth inhibition by aqueous non-Radioactivity Cell proliferation Assay; type: cell-based; conditions: chlorocebus sabaeus, read-out: TC50 (the source's name)
[4] = molecular target: T1, Corticotropin-releasing factor receptor 1 (Homo sapiens) (UniProt P34998); experiment: Displacement of [125I]-Tyr0 sauvagine from human CRF1 receptor expressed in HEK293 cells membrane homogenates at 1000 nM for 120 mins by scintillation counting in the presence of antalarmin; type: cell membranes
T1 sequence (whole entry): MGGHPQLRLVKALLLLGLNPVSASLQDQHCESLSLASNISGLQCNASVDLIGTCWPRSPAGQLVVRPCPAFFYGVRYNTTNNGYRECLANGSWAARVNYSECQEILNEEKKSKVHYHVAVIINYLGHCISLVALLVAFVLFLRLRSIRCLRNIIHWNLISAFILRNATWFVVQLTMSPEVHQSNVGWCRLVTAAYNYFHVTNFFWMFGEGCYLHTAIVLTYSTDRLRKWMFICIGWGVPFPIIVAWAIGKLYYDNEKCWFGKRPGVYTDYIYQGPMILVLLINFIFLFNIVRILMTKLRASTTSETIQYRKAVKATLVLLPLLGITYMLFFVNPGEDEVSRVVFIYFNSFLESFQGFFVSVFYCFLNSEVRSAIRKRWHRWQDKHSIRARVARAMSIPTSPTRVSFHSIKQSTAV

Semliki Forest virus = experiment: Antiviral activity against Semliki forest virus infected in mouse; type: functional

SMILES | IC50 (Human betaherpesvirus 5) [µM] | inhibition [4] [%] | CC50 [1] [µM] | CC50 [2] [µM] | CC50 [3] [µM] | Activity (Semliki Forest virus) [%]
CC(C)=CCn1c(=O)sc2c(=O)[nH]c(N)nc21 | 6.8 | – | 75 | 75 | 75 | –
CCCN(CC1CC1)c1nc(C)nc2c1SC(=C(C#N)C#N)N2c1ccc(C(C)C)cc1Br | – | 25 | – | – | – | –
Nc1nc(=O)c2sc(=O)n([C@@H]3O[C@H](CO)[C@@H](O)[C@H]3O)c2[nH]1 [ISATORIBINE] | – | – | – | – | – | 92

Second part, led by results:

IC50 (Human betaherpesvirus 5) [µM] | inhibition [4] [%] | SMILES | CC50 [1] [µM] | CC50 [2] [µM] | CC50 [3] [µM] | Activity (Semliki Forest virus) [%]
– | 25 | CCOC(=O)/C(C#N)=C1/Sc2c(N(CCOC)CCOC)nc(C)nc2N1c1ccc(C(C)C)cc1Br | – | – | – | –
0.5 | – | CC/C=C/Cn1c(=O)sc2c(=O)[nH]c(N)nc21 | 75 | 75 | 75 | –
